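All cell lines were grown in 96-well plates and treated with compound for 48 hours. At the GI50, growth is halved.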 Active and inactive are the calls of the source. No stated cut-off is given here; in the data, active = GI50 up to about 1.1 µM and inactive = higher.
Columns and labels:
Experiment in all cases: NCI tumour cell line growth inhibition, 48 h
A549 = test system: A549
ACHN = test system: ACHN
CCRF-CEM = test system: CCRF-CEM
COLO 205 = test system: COLO 205
HCT-116 = test system: HCT-116
KM12 = test system: KM12
NCI-H226 = test system: NCI-H226
NCI-H522 = test system: NCI-H522
OVCAR-8 = test system: OVCAR-8
SF-539 = test system: SF-539
SK-OV-3 = test system: SK-OV-3
SNB-19 = test system: SNB-19
SNB-75 = test system: SNB-75
SW-620 = test system: SW-620
U-251 = test system: U-251
UACC-62 = test system: UACC-62
HOP-92 = test system: HOP-92

Measured: GI50

CC(C)O/C=C1\C(=O)C2(SCCS2)[C@H]2CCCC[C@@H]12
inactive: A549 37.9 µM | ACHN 39.3 µM | CCRF-CEM 25.5 µM | COLO 205 18.5 µM | HCT-116 34.4 µM | KM12 35.6 µM | NCI-H226 84.1 µM | NCI-H522 20.5 µM | OVCAR-8 36.6 µM | SF-539 44.3 µM | SK-OV-3 59.7 µM | SNB-19 39.5 µM | SNB-75 28.8 µM | SW-620 42.7 µM | U-251 40.5 µM | UACC-62 20.9 µM

CCOC(=O)COc1cccc2occc(=O)c12
inactive: A549 > 100 µM | ACHN > 100 µM | CCRF-CEM > 100 µM | COLO 205 > 100 µM | HCT-116 > 100 µM | HOP-92 > 100 µM | KM12 > 100 µM | NCI-H522 > 100 µM | OVCAR-8 > 100 µM | SF-539 > 100 µM | SK-OV-3 > 100 µM | SNB-19 > 100 µM | SW-620 > 100 µM | U-251 > 100 µM | UACC-62 > 100 µM

CC1=NN(C(=O)Nc2ccccc2)C(=O)C2CCC(=O)N12 (stereo not drawn)
inactive: A549 > 100 µM | ACHN > 100 µM | CCRF-CEM > 100 µM | COLO 205 > 100 µM | HCT-116 > 100 µM | HOP-92 > 100 µM | KM12 > 100 µM | OVCAR-8 > 100 µM | SF-539 > 100 µM | SK-OV-3 > 100 µM | SNB-19 > 100 µM | SNB-75 84.3 µM | SW-620 > 100 µM | U-251 > 100 µM | UACC-62 > 100 µM

c1ccc(SC(Sc2ccccc2)=C2CCC2)cc1
inactive: A549 > 100 µM | ACHN > 100 µM | CCRF-CEM > 100 µM | COLO 205 > 100 µM | HCT-116 > 100 µM | HOP-92 55.3 µM | KM12 > 100 µM | NCI-H522 > 100 µM | OVCAR-8 > 100 µM | SF-539 > 100 µM | SK-OV-3 > 100 µM | SNB-19 > 100 µM | SNB-75 98.4 µM | SW-620 > 100 µM | U-251 > 100 µM | UACC-62 65 µM

CCC(C)(C)n1c(C)nc2c1C(=O)c1ccccc1C2=O
inactive: A549 36.5 µM | ACHN 32.9 µM | CCRF-CEM 29.7 µM | COLO 205 17 µM | HCT-116 13.6 µM | KM12 23.8 µM | NCI-H226 40.6 µM | NCI-H522 28.4 µM | OVCAR-8 36.1 µM | SF-539 26.5 µM | SK-OV-3 44.9 µM | SNB-19 53.3 µM | SNB-75 27.2 µM | SW-620 44.7 µM | U-251 28.8 µM | UACC-62 13.5 µM

Cc1nc2sccn2c1C(=O)NN
inactive: A549 > 100 µM | ACHN > 100 µM | CCRF-CEM > 100 µM | COLO 205 > 100 µM | HCT-116 > 100 µM | HOP-92 > 100 µM | KM12 > 100 µM | NCI-H226 > 100 µM | NCI-H522 > 100 µM | OVCAR-8 > 100 µM | SF-539 > 100 µM | SK-OV-3 > 100 µM | SNB-19 > 100 µM | SW-620 > 100 µM | U-251 > 100 µM | UACC-62 > 100 µM

C/C(=N/O)c1ccc2c(c1)/C(=N/O)c1cc(/C(C)=N/O)ccc1-2
inactive: A549 10.6 µM | ACHN 8.53 µM | COLO 205 17.8 µM | HCT-116 20.1 µM | HOP-92 26.1 µM | KM12 16.3 µM | NCI-H226 11.2 µM | NCI-H522 18.9 µM | OVCAR-8 16.7 µM | SF-539 15.5 µM | SK-OV-3 21.4 µM | SNB-19 13.8 µM | SNB-75 17.9 µM | SW-620 14.5 µM | U-251 15.3 µM | UACC-62 14.2 µM

COc1ccc(NC(=O)CC/C(CC(=O)c2ccccc2Cl)=N\Nc2nnc(C)n2N)cc1
inactive: A549 > 100 µM | ACHN > 100 µM | CCRF-CEM > 100 µM | COLO 205 > 100 µM | HCT-116 > 100 µM | HOP-92 > 100 µM | KM12 > 100 µM | NCI-H226 > 100 µM | OVCAR-8 > 100 µM | SF-539 > 100 µM | SK-OV-3 > 100 µM | SNB-19 > 100 µM | SW-620 > 100 µM | U-251 > 100 µM | UACC-62 > 100 µM

COc1ccc(C(=O)C(CC2C(=O)NC(=O)NC2=O)c2ccc(OC)cc2)cc1 (stereo not drawn)
inactive: A549 > 100 µM | ACHN > 100 µM | CCRF-CEM > 100 µM | COLO 205 > 100 µM | HCT-116 > 100 µM | KM12 > 100 µM | NCI-H226 > 100 µM | NCI-H522 > 100 µM | OVCAR-8 > 100 µM | SF-539 > 100 µM | SK-OV-3 > 100 µM | SNB-19 > 100 µM | SNB-75 > 100 µM | SW-620 > 100 µM | U-251 > 100 µM | UACC-62 > 100 µM

CN(/N=C\c1ccnc2ccccc12)c1ccccc1
inactive: A549 21.6 µM | ACHN 31 µM | CCRF-CEM 10 µM | COLO 205 20.3 µM | HCT-116 17.6 µM | HOP-92 25.4 µM | KM12 19 µM | NCI-H522 17.8 µM | OVCAR-8 38.3 µM | SF-539 25.7 µM | SK-OV-3 31.2 µM | SNB-19 29.2 µM | SNB-75 32.5 µM | SW-620 23 µM | U-251 25.8 µM | UACC-62 19.5 µM

CCC12C=CCN(CCc3c([nH]c4ccccc34)/C=C\1)C2 (stereo not drawn)
inactive: A549 > 100 µM | ACHN > 100 µM | CCRF-CEM > 100 µM | COLO 205 > 100 µM | HCT-116 > 100 µM | KM12 > 100 µM | NCI-H226 > 100 µM | NCI-H522 > 100 µM | SF-539 > 100 µM | SNB-19 > 100 µM | SNB-75 44.6 µM | SW-620 > 100 µM | U-251 > 100 µM | UACC-62 > 100 µM

CSc1nnc(COc2ccc(Cl)cc2)o1
inactive: A549 > 100 µM | ACHN > 100 µM | COLO 205 > 100 µM | HCT-116 > 100 µM | KM12 > 100 µM | NCI-H522 > 100 µM | OVCAR-8 > 100 µM | SF-539 > 100 µM | SK-OV-3 > 100 µM | SNB-19 > 100 µM | SNB-75 > 100 µM | SW-620 > 100 µM | U-251 > 100 µM | UACC-62 > 100 µM

O=[N+]([O-])c1cc(/C=N/NS(=O)(=O)c2ccc(F)cc2)c(O)c([N+](=O)[O-])c1
inactive: A549 48 µM | ACHN 40.5 µM | CCRF-CEM 37.6 µM | COLO 205 18.9 µM | HCT-116 33.7 µM | HOP-92 38.4 µM | KM12 21 µM | NCI-H522 21.2 µM | OVCAR-8 24.8 µM | SF-539 22 µM | SK-OV-3 30.1 µM | SNB-19 33.7 µM | SNB-75 25.9 µM | SW-620 41.3 µM | U-251 23.8 µM | UACC-62 46.3 µM

O=C(O)CSc1nnc(-c2ccccc2O)[nH]1
inactive: A549 > 100 µM | ACHN > 100 µM | CCRF-CEM > 100 µM | HCT-116 > 100 µM | HOP-92 > 100 µM | NCI-H226 > 100 µM | OVCAR-8 > 100 µM | SF-539 > 100 µM | SNB-19 > 100 µM | SNB-75 > 100 µM | SW-620 > 100 µM | U-251 > 100 µM | UACC-62 > 100 µM

NC(=O)c1nc(-c2ccc(Cl)c(Cl)c2)nc2ccccc12
inactive: A549 > 21.4 µM | ACHN > 20.8 µM | CCRF-CEM > 100 µM | COLO 205 > 100 µM | HCT-116 > 19.8 µM | HOP-92 1.56 µM | KM12 > 100 µM | NCI-H226 18 µM | NCI-H522 > 100 µM | SF-539 13.4 µM | SK-OV-3 12.1 µM | SNB-19 17.8 µM | SNB-75 2.68 µM | SW-620 > 22 µM | U-251 > 28 µM | UACC-62 > 24.9 µM

O=C(CN1C(=O)c2ccccc2C1=O)OC1C=CCCC1 (stereo not drawn)
inactive: A549 > 100 µM | ACHN > 100 µM | CCRF-CEM > 100 µM | COLO 205 > 100 µM | HCT-116 > 100 µM | KM12 > 100 µM | NCI-H226 > 100 µM | NCI-H522 72.8 µM | OVCAR-8 > 100 µM | SF-539 > 100 µM | SK-OV-3 > 100 µM | SNB-19 > 100 µM | SNB-75 > 100 µM | SW-620 > 100 µM | U-251 > 100 µM | UACC-62 > 100 µM

C=CCc1ccc(O)c(-c2cc(C3Oc4c(-c5cc(CC=C)ccc5O)cc(O)cc4[C@@H]3CO)ccc2O)c1 (stereo partly drawn)
inactive: A549 56 µM | ACHN 36.2 µM | CCRF-CEM 20.7 µM | COLO 205 35 µM | HCT-116 23.7 µM | HOP-92 12.2 µM | KM12 27.4 µM | NCI-H226 53.8 µM | NCI-H522 20.1 µM | OVCAR-8 42.4 µM | SF-539 24 µM | SK-OV-3 42.7 µM | SNB-19 28.5 µM | SNB-75 45.9 µM | SW-620 15.7 µM | U-251 25.2 µM | UACC-62 30.3 µM

CCCCCCCCCCCCCCCC(=O)NCC(COP(=O)([O-])OCC[N+](C)(C)C)OCC (stereo not drawn)
inactive: A549 21 µM | ACHN 15 µM | COLO 205 2.31 µM | HCT-116 11.2 µM | HOP-92 3.52 µM | KM12 1.27 µM | NCI-H226 3.12 µM | OVCAR-8 4.42 µM | SF-539 16.2 µM | SK-OV-3 18 µM | SNB-19 3.71 µM | SNB-75 11 µM | SW-620 13 µM | U-251 4.16 µM | UACC-62 9.35 µM

Reference: ChEMBL document CHEMBL1201862, “PubChem BioAssay data set” (2004)
